{
  "source": "patent US6476030B1",
  "about": "“Pyrazolo-triazine derivatives as ligands for GABA receptors” (Merck Sharp & Dohme Ltd., priority 1998, dated 2002)",
  "note": "Structures can show the parent of a compound that is named as a salt.",
  "data": [
    {"units": {"melting point": "°C"}, "values": [
      {"molecule": "Cn1ncnc1COc1nn2c(-c3ccccc3F)nncc2c1-c1cccc(N)c1", "note": "(as salt: hemisulfate) [Example 94, 3-(3-Aminophenyl)-7-(2-fluorophenyl)-2-(2-methyl-2H-[1,2,4]triazol-3-ylmethoxy)pyrazolo[1,5-d][1,2,4]triazine]", "melting point": "196 to 200"},
      {"molecule": "Cn1ncnc1COc1nn2c(-c3ccccc3F)nncc2c1-c1ccccc1", "note": "[Example 1, 7-(2-Fluorophenyl)-2-(2-methyl-2H-[1,2,4]triazol-3-ylmethoxy)-3-phenylpyrazolo[1,5-d][1,2,4]triazine]", "melting point": 176},
      {"molecule": "Cn1ncnc1COc1nn2c(-c3ccccc3F)nncc2c1-c1ccccc1F", "note": "[Example 2, 3-(2-Fluorophenyl)-7-(2-fluorophenyl)-2-(2-methyl-2H-[1,2,4]triazol-3-ylmethoxy)pyrazolo[1,5-d][1,2,4]triazine]", "melting point": 169},
      {"molecule": "Cn1ncnc1COc1nn2c(-c3ccccc3F)nncc2c1-c1cccc(F)c1", "note": "[Example 3, 3-(3-Fluorophenyl)-7-(2-fluorophenyl)-2-(2-methyl-2H-[1,2,4]triazol-3-ylmethoxy)pyrazolo[1,5-d][1,2,4]triazine]", "melting point": 176},
      {"molecule": "Cn1ncnc1COc1nn2c(-c3ccccc3F)nncc2c1-c1ccc(F)cc1", "note": "[Example 4, 3-(4-Fluorophenyl)-7-(2-fluorophenyl)-2-(2-methyl-2H-[1,2,4]triazol-3-ylmethoxy)pyrazolo[1,5-d][1,2,4]triazine]", "melting point": 192},
      {"molecule": "CCn1ncnc1COc1nn2c(-c3ccccc3F)nncc2c1-c1ccccc1", "note": "[Example 5, 2-(2-Ethyl-2H-[1,2,4]triazol-3-ylmethoxy)-7-(2-fluorophenyl)-3-phenylpyrazolo[1,5-d][1,2,4]triazine]", "melting point": "171 to 173"},
      {"molecule": "Cn1ncnc1COc1nn2c(-c3cccc(F)c3)nncc2c1-c1ccccc1", "note": "[Example 7, 7-(3-Fluorophenyl)-2-(2-methyl-2H-[1,2,4]triazol-3-ylmethoxy)-3-phenylpyrazolo[1,5-d][1,2,4]triazine]", "melting point": 198},
      {"molecule": "Fc1ccccc1-c1nncc2c(-c3ccccc3)c(OCc3ccccn3)nn12", "note": "[Example 8, 7-(2-Fluorophenyl)-3-phenyl-2-(pyridin-2-ylmethoxy)pyrazolo[1,5-d][1,2,4]triazine]", "melting point": "182 to 183"},
      {"molecule": "Cn1ncnc1COc1nn2c(-c3c(F)cccc3F)nncc2c1-c1ccccc1", "note": "[Example 10, 7-(2,6-Difluorophenyl)-2-(2-methyl-2H-[1,2,4]triazol-3-ylmethoxy)-3-phenylpyrazolo[1,5-d][1,2,4]triazine]", "melting point": 179},
      {"molecule": "Cn1ncnc1COc1nn2c(-c3cccs3)nncc2c1-c1ccccc1", "note": "[Example 11, 2-(2-Methyl-2H-[1,2,4]triazol-3-ylmethoxy)-3-phenyl-7-(thien-2-yl) pyrazolo[1,5-d][1,2,4]triazine]", "melting point": 209},
      {"molecule": "Cn1ncnc1COc1nn2c(-c3ccccc3)nncc2c1-c1ccccc1", "note": "[Example 12, 3,7-Diphenyl-2-(2-methyl-2H-[1,2,4]triazol-3-ylmethoxy)pyrazolo[1,5-d][1,2,4]triazine]", "melting point": 185},
      {"molecule": "Cn1ncnc1COc1nn2c(-c3cc(F)ccc3F)nncc2c1-c1ccccc1", "note": "[Example 13, 7-(2,5-Difluorophenyl)-2-(2-methyl-2H-[1,2,4]triazol-3-ylmethoxy)-3-phenylpyrazolo[1,5-d][1,2,4]triazine]", "melting point": 199},
      {"molecule": "Cn1ncnc1COc1nn2c(-c3ccccc3F)nncc2c1-c1cc(F)ccc1F", "note": "[Example 14, 3-(2,5-Difluorophenyl)-7-(2-fluorophenyl)-2-(2-methyl-2H-[1,2,4]triazol-3-ylmethoxy)Pyrazolo[1,5-d][1,2,4]triazine]", "melting point": "164 to 165"},
      {"molecule": "Cn1ncnc1COc1nn2c(-c3ccccc3F)nncc2c1-c1c(F)cccc1F", "note": "[Example 15, 3-(2,6-Difluorophenyl)-7-(2-fluorophenyl)-2-(2-methyl-2H-[1,2,4]triazol-3-ylmethoxy)pyrazolo[1,5-d][1,2,4]triazine]", "melting point": 196},
      {"molecule": "Cn1ncnc1COc1nn2c(-c3ccccc3F)nncc2c1-c1cccc(F)c1F", "note": "[Example 16, 3-(2,3-Difluorophenyl)-7-(2-fluorophenyl)2-(2-methyl-2H-[1,2,4]triazol-3-ylmethoxy)pyrazolo[1,5-d][1,2,4]triazine]", "melting point": 176},
      {"molecule": "Cn1ncnc1COc1nn2c(-c3ccccc3F)nncc2c1Br", "note": "[Example 17, 3-Bromo-7-(2-fluorophenyl)-2-(2-methyl-2H-[1,2,4]triazol-3-ylmethoxy)pyrazolo[1,5-d][1,2,4]triazine]", "melting point": "215 to 219"},
      {"molecule": "Cn1ncnc1COc1nn2c(-c3ccccc3F)nncc2c1-c1cccc(C(F)(F)F)c1", "note": "[Example 18, 7-(2-Fluorophenyl)-2-(2-methyl-2H-[1,2,4]triazol-3-ylmethoxy)-3-[3-(trifluoromethyl)phenyl]pyrazolo[1,5-d][1,2,4]triazine]", "melting point": "152 to 155"},
      {"molecule": "Cn1ncnc1COc1nn2c(-c3ccccc3F)nncc2c1-c1cc(F)cc(F)c1", "note": "[Example 20, 3-(3,5-Difluorophenyl)-7-(2-fluorophenyl)-2-(2-methyl-2H-[1,2,4]triazol-3-ylmethoxy)pyrazolo[1,5-d][1,2,4]triazine]", "melting point": "171 to 173"},
      {"molecule": "Cn1ncnc1COc1nn2c(-c3cc(F)ccc3F)nncc2c1C(C)(C)C", "note": "[Example 21, 7-(2,5-Difluorophenyl)-3-(1,1-dimethylethyl)-2-(2-methyl-2H-[1,2,4]triazol-3-ylmethoxy)pyrazolo[1,5-d][1,2,4]triazine]", "melting point": 144},
      {"molecule": "CCn1ncnc1COc1nn2c(-c3cc(F)ccc3F)nncc2c1C(C)(C)C", "note": "[Example 22, 7-(2,5-Difluorophenyl)-3-(1,1-dimethylethyl)-2-(2-ethyl-2H-[1,2,4]triazol-3-ylmethoxy)pyrazolo[1,5-d][1,2,4]triazine]", "melting point": 108},
      {"molecule": "Cn1ncnc1COc1nn2c(-c3ccccc3F)nncc2c1C(C)(C)C", "note": "[Example 24, 3-(1,1-Dimethylethyl)-7-(2-fluorophenyl)-2-(2-methyl-2H-[1,2,4]triazol-3-ylmethoxy)pyrazolo[1,5-d][1,2,4]triazine]", "melting point": 128},
      {"molecule": "CCn1ncnc1COc1nn2c(-c3ccccc3F)nncc2c1C(C)(C)C", "note": "[Example 25, 3-(1,1-Dimethylethyl)-2-(2-ethyl-2H-[1,2,4]triazol-3-ylmethoxy)-7-(2-fluorophenyl)pyrazolo[1,5-d][1,2,4]triazine]", "melting point": 105},
      {"molecule": "CCCn1ncnc1COc1nn2c(-c3ccccc3F)nncc2c1C(C)(C)C", "note": "[Example 26, 3-(1,1-Dimethylethyl)-7-(2-fluorophenyl)-2-(2-propyl-2H-[1,2,4]triazol-3-ylmethoxy)pyrazolo[1,5-d][1,2,4]triazine]", "melting point": 93},
      {"molecule": "CCn1ncnc1COc1nn2c(-c3c(F)ccc(F)c3F)nncc2c1C(C)(C)C", "note": "[Example 29, 3-(1,1-Dimethylethyl)-2-(2-ethyl-2H-[1,2,4]triazol-3-ylmethoxy)-7-(2,3,6-trifluorophenyl)pyrazolo[1,5-d][1,2,4]triazine]", "melting point": 42},
      {"molecule": "CC(C)n1ncnc1COc1nn2c(-c3cc(F)ccc3F)nncc2c1C(C)(C)C", "note": "[Example 30, 7-(2,5-Difluorophenyl)-3-(1,1-dimethylethyl)-2-(2-isopropyl-2H-[1,2,4]triazol-3-ylmethoxy)pyrazolo[1,5-d][1,2,4]triazine]", "melting point": 163},
      {"molecule": "Cn1ncnc1COc1nn2c(-c3cnccn3)nncc2c1-c1ccccc1F", "note": "[Example 31, 3-(2-Fluorophenyl)-2-(2-methyl-2H-[1,2,4]triazol-3-ylmethoxy)-7-(pyrazin-2-yl)pyrazolo[1,5-d][1,2,4]triazine]", "melting point": "179 to 180"},
      {"molecule": "CCn1ncnc1COc1nn2c(-c3cc(F)ccc3F)nncc2c1C(C)(C)CC", "note": "[Example 33, 7-(2,5-Difluorophenyl)-3-(1,1-dimethylpropyl)-2-(2-ethyl-2H-[1,2,4]triazol-3-ylmethoxy)pyrazolo[1,5-d][1,2,4]triazine]", "melting point": "85 to 86"},
      {"molecule": "CCC(C)(C)c1c(OCc2ncnn2C)nn2c(-c3ccccc3F)nncc12", "note": "[Example 34, 3-(1,1-Dimethylpropyl)-7-(2-fluorophenyl)-2-(2-methyl-2H-[1,2,4]triazol-3-ylmethoxy)pyrazolo[1,5-d][1,2,4]triazine]", "melting point": "89 to 91"},
      {"molecule": "Cn1ncnc1COc1nn2c(-c3ccccc3F)nncc2c1-c1cccnc1", "note": "[Example 35, 7-(2-Fluorophenyl)-2-(2-methyl-2H-[1,2,4]triazol-3-ylmethoxy)-3-(pyridin-3-yl)pyrazolo[1,5-d][1,2,4]triazine]", "melting point": "181 to 183"},
      {"molecule": "Cn1ncnc1COc1nn2c(-c3ccco3)nncc2c1-c1ccccc1F", "note": "[Example 36, 3-(2-Fluorophenyl)-7-(furan-2-yl)-2-(2-methyl-2H-[1,2,4]triazol-3-ylmethoxy)pyrazolo[1,5-d][1,2,4]triazine]", "melting point": "204 to 206"},
      {"molecule": "Cn1ncnc1COc1nn2c(-c3ccc(F)cc3)nncc2c1C(C)(C)C", "note": "[Example 37, 3-(1,1-Dimethylethyl)-7-(4-fluorophenyl)-2-(2-methyl-2H-[1,2,4]triazol-3-ylmethoxy)pyrazolo[1,5-d][1,2,4]triazine]", "melting point": 197},
      {"molecule": "CCn1ncnc1COc1nn2c(-c3ccc(F)cc3)nncc2c1C(C)(C)C", "note": "[Example 38, 3-(1,1-Dimethylethyl)-2-(2-ethyl-2H-[1,2,4]triazol-3-ylmethoxy)-7-(4-fluorophenyl)pyrazolo[1,5-d][1,2,4]triazine]", "melting point": 190},
      {"molecule": "CCCn1ncnc1COc1nn2c(-c3ccc(F)cc3)nncc2c1C(C)(C)C", "note": "[Example 39, 3-(1,1-Dimethylethyl)-7-(4-fluorophenyl)-2-(2-propyl-2H-[1,2,4]triazol-3-ylmethoxy)pyrazolo[1,5-d][1,2,4]triazine]", "melting point": 154},
      {"molecule": "CCn1ncnc1COc1nn2c(-c3ccccc3F)nncc2c1C(C)(C)CC", "note": "[Example 40, 3-(1,1-Dimethylpropyl)-2-(2-ethyl-2H-[1,2,4]triazol-3-ylmethoxy)-7-(2-fluorophenyl)pyrazolo[1,5-d][1,2,4]triazine]", "melting point": "89 to 92"},
      {"molecule": "Cn1ncnc1COc1nn2c(-c3ccc(F)cc3)nncc2c1-c1ccccc1F", "note": "[Example 41, 3-(2-Fluorophenyl)-7-(4-fluorophenyl)-2-(2-methyl-2H-[1,2,4]-triazol-3-ylmethoxy)pyrazolo[1,5-d][1,2,4]triazine]", "melting point": 191}
    ]}
  ]
}
